# Laboratory results as given in patent publication US9775877B2, “Combinations with a backbone-cyclized peptide” (POLYPHOR AG, priority 2012, dated 2017).
# Non-standard residues stand in square brackets, D forms with d. dDab = NCC[C@@H](N)C(=O)O; Orn = NCCC[C@H](N)C(=O)O; Dab = NCC[C@H](N)C(=O)O
# Tested on: Pseudomonas aeruginosa clinical isolate PAX11045
# Assay: Efficacy in murine pneumonia model, compound 1 in combination with tigecycline (Example 1)
# Assay type: in vivo
# Protocol: Colony counts in lung were determined at 20 hours post treatment.
# Fresh overnight colonies of PAX11045 from a 5% Horse Blood Agar plate were suspended in 0.9% sterile saline to approximately 10^8 CFU/ml and further diluted to approximately […]. Female mice (DBA/2, […], 18-22 g, Chales River) were anesthetized with 0.08 ml of Zoletil and inoculated via the nose with a pipette with 0.1 ml of the bacteria suspension containing approximately 10^6 CFU. 4 hours after inoculation, the mice were treated orally with 45 μl neurophen (20 mg ibuprofen/ml corresponding to approximately 30 mg/kg) as pain relief.
# […] As positive control Ciprofloxacin was used in the same manner with a fixed dose of 20 mg/kg.
# Colony counts were determined post inoculation at 4 hours (untreated mice) and 24 hours (treated and vehicle-only treated mice). Immediately after the mice were sacrificed, the lungs were collected and frozen at −20° C. After thawing, the organs were homogenized in 1 ml 0.9% saline. Each sample was then 10 fold diluted in saline and 20 μl spots were applied on blood agar plates. All agar plates were incubated 18-24 hours at 35° C. in ambient air.
# [1] = compound 1 in presence of 12.5 mg/kg tigecycline, mice, murine lungs
Molecule,"effect on bacterial loads (tigecycline 12.5 mg/kg alone, s.c. single dose 3 h post infection, lung)","Top level (compound 1 in presence of 12.5 mg/kg tigecycline (s.c., 3 h post infection), mice, murine lungs) [log10 CFU/ml]",2 log killing dose [1] [mg/kg],Bottom level [1] [log10 CFU/ml],Emax [1] [log10 CFU/ml],Static dose [1] [mg/kg],"ED50 (compound 1 in presence of a fixed dose of tigecycline (12.5 mg/kg), mice, s.c., murine lungs, colony counts 20 h post treatment) [mg/kg]"
"CN(C)c1cc(NC(=O)CNC(C)(C)C)c(O)c2c1C[C@H]1C[C@H]3[C@H](N(C)C)C(O)=C(C(N)=O)C(=O)[C@@]3(O)C(O)=C1C2=O [tigecycline, reference compound]",no effect,,,,,,
cyclo(TWI[Dab][Orn][dDab][Dab]W[Dab][Dab]AS[dP]P) [compound 1],,0.13,2.1,−2.37,2.5,0.74,1.33
